In ChEMBL document CHEMBL2384946 (Bioorg Med Chem, 2013):

Tests used:
[1] = species: Rattus norvegicus; assay: Selectivity ratio of Ki for rat cloned dopamine D2L receptor to Ki for rat cloned dopamine D3 receptor
[2] = target: D(3) dopamine receptor (Rattus norvegicus, UniProt P19020); assay: Displacement of [3H]spiperone from rat cloned dopamine D3 receptor expressed in HEK293 cells after 1 hr; type: cell-based
[3] = target: D(2) dopamine receptor (Rattus norvegicus, UniProt P61169); assay: Displacement of [3H]spiperone from rat cloned dopamine D2L receptor expressed in HEK293 cells after 1 hr; type: cell-based
[4] = target: D(3) dopamine receptor (Homo sapiens, UniProt P35462); assay: Agonist activity at human dopamine D3 receptor expressed in CHO cells assessed as stimulation of [35S]GTPgammaS binding after 60 mins by scintillation counting analysis; type: functional, cell-based
[5] = target: T1, D(2) dopamine receptor (Homo sapiens, UniProt P14416); assay: Agonist activity at human dopamine D2L receptor expressed in CHO cells assessed as stimulation of [35S]GTPgammaS binding after 60 mins by scintillation counting analysis relative to dopamine; type: functional, cell-based
[6] = target: T1, D(2) dopamine receptor; assay: Agonist activity at human dopamine D2L receptor expressed in CHO cells assessed as stimulation of [35S]GTPgammaS binding after 60 mins by scintillation counting analysis; type: functional, cell-based

Chain of D(2) dopamine receptor (Rattus norvegicus, UniProt P61169) (P61169 whole entry): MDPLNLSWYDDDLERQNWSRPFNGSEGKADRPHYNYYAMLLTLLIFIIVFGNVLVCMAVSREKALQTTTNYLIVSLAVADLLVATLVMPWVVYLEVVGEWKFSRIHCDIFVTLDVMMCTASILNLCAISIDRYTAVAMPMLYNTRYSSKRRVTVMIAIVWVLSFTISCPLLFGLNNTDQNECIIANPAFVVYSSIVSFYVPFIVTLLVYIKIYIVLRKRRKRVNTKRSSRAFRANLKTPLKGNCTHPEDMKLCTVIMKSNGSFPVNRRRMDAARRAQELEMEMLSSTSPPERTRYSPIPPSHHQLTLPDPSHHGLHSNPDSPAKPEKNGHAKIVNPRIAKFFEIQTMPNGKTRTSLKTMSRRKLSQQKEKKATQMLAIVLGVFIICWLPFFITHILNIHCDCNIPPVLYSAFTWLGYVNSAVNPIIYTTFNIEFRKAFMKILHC
Chain of D(3) dopamine receptor (Rattus norvegicus, UniProt P19020) (P19020 whole entry): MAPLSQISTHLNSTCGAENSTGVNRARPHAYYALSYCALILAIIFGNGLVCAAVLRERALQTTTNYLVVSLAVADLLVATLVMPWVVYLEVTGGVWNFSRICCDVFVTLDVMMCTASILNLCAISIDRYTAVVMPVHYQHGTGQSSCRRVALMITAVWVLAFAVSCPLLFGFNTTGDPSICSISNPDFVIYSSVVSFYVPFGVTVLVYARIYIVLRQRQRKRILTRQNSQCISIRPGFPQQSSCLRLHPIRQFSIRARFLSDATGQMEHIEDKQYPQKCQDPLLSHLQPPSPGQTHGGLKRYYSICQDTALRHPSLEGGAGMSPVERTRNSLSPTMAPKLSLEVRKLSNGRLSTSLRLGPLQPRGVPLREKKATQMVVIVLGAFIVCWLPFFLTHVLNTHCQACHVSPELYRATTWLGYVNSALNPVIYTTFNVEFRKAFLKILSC
Chain of D(3) dopamine receptor (Homo sapiens, UniProt P35462) (P35462 whole entry): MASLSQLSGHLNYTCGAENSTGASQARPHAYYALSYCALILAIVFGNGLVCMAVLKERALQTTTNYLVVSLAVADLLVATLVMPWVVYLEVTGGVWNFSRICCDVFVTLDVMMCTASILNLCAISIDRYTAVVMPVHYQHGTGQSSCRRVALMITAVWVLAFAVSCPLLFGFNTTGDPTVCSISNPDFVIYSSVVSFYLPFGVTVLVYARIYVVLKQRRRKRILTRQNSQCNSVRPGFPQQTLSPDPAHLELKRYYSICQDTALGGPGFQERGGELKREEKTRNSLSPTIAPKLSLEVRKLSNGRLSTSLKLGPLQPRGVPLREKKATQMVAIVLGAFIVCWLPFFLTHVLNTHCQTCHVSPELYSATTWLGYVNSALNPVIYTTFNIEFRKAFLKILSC
T1 sequence (P14416 whole entry): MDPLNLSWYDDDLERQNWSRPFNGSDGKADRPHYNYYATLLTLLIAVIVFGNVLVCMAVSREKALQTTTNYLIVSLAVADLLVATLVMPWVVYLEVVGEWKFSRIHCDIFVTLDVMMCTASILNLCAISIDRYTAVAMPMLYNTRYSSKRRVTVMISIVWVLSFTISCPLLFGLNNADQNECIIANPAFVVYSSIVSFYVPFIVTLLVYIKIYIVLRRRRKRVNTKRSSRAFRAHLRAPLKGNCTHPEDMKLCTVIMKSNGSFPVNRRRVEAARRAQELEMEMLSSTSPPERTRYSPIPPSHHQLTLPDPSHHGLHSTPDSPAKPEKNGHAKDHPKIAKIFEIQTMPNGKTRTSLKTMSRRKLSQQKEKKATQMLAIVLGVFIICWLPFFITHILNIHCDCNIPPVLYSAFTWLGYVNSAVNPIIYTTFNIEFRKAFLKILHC

Row | Structure (SMILES) | Ratio Ki [1] | Ki [2] [nM] | Ki [3] [nM] | EC50 ([4]; read-out: EC50) [nM] | Emax [5] [%] | EC50 ([6]; read-out: EC50) [nM] | EC50 ([4]; cho) | EC50 ([6]; cho)
1 | CCCN(CCN1CCN(c2nccc3ccccc23)CC1)[C@H]1CCc2nc(N)sc2C1 | 121 |  |  |  |  |  |  | 
2 | CCCN(CCN1CCN(c2ccccc2)CC1)[C@@H]1CCc2ccc(OS(=O)(=O)c3ccc(OC)cc3)cc2C1 | 40 | 26.9 | 1080 |  |  |  |  | 
3 | CCCN(CCN1CCN(C(=O)c2cc3ccccc3[nH]2)CC1)C1CCc2nc(N)sc2C1 (centres undefined) |  | 1.84 | 1070 | 0.26 | 101 |  |  | 
4 | CCCN(CCN1CCN(c2ccccc2)CC1)C1CCc2ccc(NS(=O)(=O)c3ccc(OC)cc3)cc2C1 (racemic) |  | 2.22 | 64.9 |  |  |  |  | 
5 | CCCN(CCN1CCN(c2ccccc2)CC1)C1CCc2ccc(NS(=O)(=O)c3ccc(C(F)(F)F)cc3)cc2C1 (centres undefined) | 10.6 | 8.64 | 91.2 |  |  |  |  | 
6 | CCCN(CCN1CCN(c2ccccc2)CC1)[C@H]1CCc2c(cccc2OS(=O)(=O)c2ccc(C)cc2)C1 | 19.8 | 32 | 632 |  |  |  |  | 
7 | CCCN(CCN1CCN(c2ccccc2)CC1)C1CCc2ccc(NS(=O)(=O)c3ccc(C)cc3)cc2C1 (centres undefined) | 10.6 | 3.69 | 39.2 |  |  |  |  | 
8 | CCCN(CCN1CCN(c2ccccc2)CC1)[C@H]1CCc2c(cccc2OS(=O)(=O)c2ccc(OC)cc2)C1 |  | 17.6 | 497 |  |  |  | Not Active | Not Active
9 | CCCN(CCN1CCN(c2ccccc2)CC1)C1CCc2ccc(NS(=O)(=O)c3ccc(Cl)cc3)cc2C1 (centres undefined) | 17.5 | 4.13 | 72.4 |  |  |  |  | 
10 | CCCN(CCN1CCN(c2ccccc2)CC1)[C@@H]1CCc2ccc(NS(=O)(=O)c3ccc(OC)cc3)cc2C1 |  | 2.32 | 101 |  |  |  | Not Active | Not Active

Next, values leading:

Row | Ratio Ki [1] | Ki [2] [nM] | Ki [3] [nM] | EC50 ([4]; read-out: EC50) [nM] | Emax [5] [%] | EC50 ([6]; read-out: EC50) [nM] | EC50 ([4]; cho) | EC50 ([6]; cho) | Structure (SMILES)
11 | 7.44 | 174 | 1300 |  |  |  |  |  | CCCN(CCN1CCN(c2ccccc2)CC1)C1CCc2ccc(NC(C)=O)cc2C1 (centres undefined)
12 |  | 45.5 | 2710 |  |  |  |  |  | CCCN(CCN1CCN(c2ccccc2)CC1)[C@H]1CCc2ccc(N)cc2C1
13 | 22.5 | 19.7 | 443 |  |  |  |  |  | CCCN(CCN1CCN(c2ccccc2OC)CC1)C1CCc2cc3[nH]cnc3cc2C1 (centres undefined)
14 |  | 20.2 | 601 | 30.3 | 36.8 | 179 |  |  | CCCN(CCN1CCN(c2ccccc2)CC1)[C@@H]1CCc2ccc(N)cc2C1
15 | 11.9 | 10.7 | 127 |  |  |  |  |  | CCCN(CCN1CCN(c2ccccc2)CC1)C1CCc2cc3cc[nH]c3cc2C1 (centres undefined)
16 | 21.3 | 60 | 1280 |  |  |  |  |  | CCCN(CCN1CCN(c2ccccc2)CC1)C1CCc2cc3[nH]cnc3cc2C1 (centres undefined)
17 | 2.14 | 195 | 417 |  |  |  |  |  | CCCN(CCN1CCN(c2ccccc2OC)CC1)C1CCc2cc3[nH]c(=O)[nH]c3cc2C1 (centres undefined)
18 |  | 22.2 | 638 |  |  |  |  |  | CCCN(CCN1CCN(c2ccccc2)CC1)C1CCc2ccc(N)cc2C1 (racemic)
19 | 2.05 | 112 | 230 |  |  |  |  |  | CCCN(CCN1CCN(c2ccccc2OC)CC1)C1CCc2cc3[nH]c(=S)[nH]c3cc2C1 (centres undefined)
20 | 9.61 | 54.1 | 520 |  |  |  |  |  | CCCN(CCN1CCN(c2ccccc2)CC1)C1CCc2ccc3nc[nH]c3c2C1 (centres undefined)
21 | 5.72 | 109 | 624 |  |  |  |  |  | CCCN(CCN1CCN(c2ccccc2)CC1)C1CCc2ccc(NC(=O)c3ccccc3)cc2C1 (centres undefined)
22 | 8.89 |  |  |  |  |  |  |  | CCCN(CCN1CCN(c2ccccc2)CC1)C1CCc2cc3[nH]c(N)nc3cc2C1 (centres undefined)
